# Experimental data: patent US20200276258A1, “PHARMACEUTICAL COMPOSITION FOR CONTROLLING BLOOD SUGAR” (BEIJING HEBABIZ BIOTECHNOLOGY CO., Inc., priority 2017, published 2020)
# Where a name gives a salt, the structure may show the parent alone.
# Key:
# [1] = tested on: type 2 diabetes rat model (high-fat and high-sugar feed + streptozotocin); experiment: Pharmacodynamic experiment: biochemical indexes of rat model after 4 weeks of administration; type: in vivo, Wistar rats; settings: model rats
# Source text: (§1) Wistar rats were bred adaptively for 1 week. The subjects were randomly divided into the normal Control group (10) and the modeling group (60) according to their body weight from the second week. The normal Control group (Control) was fed with basic feed, and the model group was fed with high-fat and high-sugar feed. […] On the 9th weekend, rats fasted overnight, measured FBG and insulin levels, and calculated the insulin index (ISI). The model would be successfully established if the fasting blood glucose (>) was 11.1 mmol/L and the ISI was decreased. The successfully modeled rats were randomly divided into Model group, Metformin hydrochloride group, HH003 group, and HH003B group, with 10 rats in each group. […] Fasting but gave water after the last dose, and then weighted the rats after 12 hours. Detected the content of fasting insulin (Insulin), separated the serum, detected the high-density lipoprotein (HDL), free fatty acid (FFA) and glycosylated hemoglobin (GHB).
# [2] = tested on: type 2 diabetes rat model (high-fat and high-sugar feed + streptozotocin); experiment: Combined drug use experiment (HH003B with Empagliflozin): HbA1c in rat model; type: in vivo, Wistar rats; settings: model rats
# Source text: as §1, with “(GHB). […] Empagliflozin group was given by gavage 1 mg/kg once a day. […] HbA1c was determined at the end of the experiment.” for “(GHB).”
# [3] = 4 weeks, metformin hydrochloride 200 mg/kg daily gavage, HH003/HH003B 30% of feed (about 13 g/d/kg)
Compound,"effect on HDL level, in words ([1]; 4 weeks of administration)","effect on glycosylated hemoglobin GHB level, in words ([1]; 4 weeks of administration, versus Model and Control groups)","effect on the disease condition of type 2 diabetes, in words ([1]; 4 weeks, HH003/HH003B 30% of feed, metformin hydrochloride 200 mg/kg)","FFA (free fatty acid), serum [1, 3] [mmol/L]","GHB (glycosylated hemoglobin) [1, 3] [mmol/L]","HDL (high-density lipoprotein), serum [1, 3] [mmol/L]","Insulin (fasting insulin) ([1]; 4 weeks, metformin hydrochloride 200 mg/kg daily gavage, HH003/HH003B 30% of feed (about 13 g/d/kg), 12 h fasting, mean ± spread) [uIU/ml]","HbA1c (glycosylated hemoglobin) ([2]; 4 weeks, Empagliflozin 1 mg/kg gavage once a day, HH003B 15% of feed (about 7 g/d/kg), combination both) [mg/dL]","effect on glycosylated hemoglobin, in words ([2]; Empagliflozin 1 mg/kg, HH003B reduced dose (15% of feed))"
"CN(C)C(=N)N=C(N)N [Metformin, metformin hydrochloride]",significantly increase HDL level,significantly reduce the GHB level of the rats but still significantly higher than that of the normal rats,only improve the disease condition of type 2 diabetes to a certain extent,0.56 ± 0.03,15.07 ± 0.85,0.74 ± 0.15,31.15 ± 6.28,,
OC[C@H]1O[C@@H](c2ccc(Cl)c(Cc3ccc(O[C@H]4CCOC4)cc3)c2)[C@H](O)[C@@H](O)[C@@H]1O [Empagliflozin],,,,,,,,7.01 ± 0.17,no effect
